From paper PMC7883873, “Discovery of New Catalytic Topoisomerase II Inhibitors for Anticancer Therapeutics” (Frontiers in Oncology, 2021)

Experiments:
[1] = molecular target: T1, TOP2A (Homo sapiens, UniProt P11388); test: Relaxation and K-DNA decatenation assays of candidates and T60 derivatives (SAR); assay type: biochemical; set-up: full-length human TOP2A and TOP2B protein (TopoGEN and Inspiralis respectively); purchased TopoGEN TG1001 (human TOP2 assay kit); settings: compared with T60
Protocol: (§1) The human TOP2 assay kit (#TG1001, TopoGEN, Buena Vista, CO) and TOP2B (HTB205, Inspiralis, UK) were used for K-DNA decatenation assays. […] The reaction was incubated at 37C for 2 h after which 4 µl stop solution (5× buffer is 5% Sarkosyl, 0.125% bromophenol blue, 25% glycerol) was added. The reaction was resolved by electrophoresis on a 0.8% agarose gel at 60 V and stained with 0.5 µg/ml ethidium bromide for 15 min. DNA bands were visualized using a gel imager (Gel Doc™ EZ System) and quantified using the Image Studio™ Lite Quantification Software.
(§2) The human TOP2A and TOP2B were used to perform DNA relaxation assays. […] The reaction was incubated at 37C for 2 h and stopped by adding 2 µl of 10% SDS and 1 µl of 250 mM of EDTA, followed by the addition of 50 µg/ml of proteinase K at 45 C for 1 h. The reaction was then resolved by electrophoresis on a 1% agarose gel at 80 V and stained with 0.5 µg/ml ethidium bromide for 15 min. DNA bands were visualized using a gel imager (Gel Doc™ EZ System) and quantified using the Image Studio™ Lite Quantification Software.

[2] = system: K562 xenografts; test: K562 xenografts, intra-tumor polymeric paste; assay type: in vivo, nude mice (Nu/Nu); settings: single 30 µl paste, 1% T60 or T633, 0.3% etoposide
Protocol: The polymeric paste was prepared with 50% poly-DL-lactide-coglycolide (PLGA) and 50% PEG 300 (w/w) as we have reported ([57]). […] The density of the paste was determined to be 1.2 g/ml ( ± 3%). One million K562 cells were inoculated subcutaneously in bilateral flanks of nude mice (Nu/Nu). […] Tumor volumes were measured every three days and were calculated by length × width × depth × 0.5236. Mice were euthanized when tumor volumes reached 15% of body weight or weight loss >20% occurred. The remaining mice were euthanized after the control group was euthanized. All animal procedures were under the guidelines of the Canadian Council on Animal Care and were approved by the UBC Animal Care Committee (# A19-0256).

[3] = molecular target: TOP2B (Homo sapiens, UniProt Q02880); test: DNA cleavage assay; assay type: biochemical; set-up: full-length human TOP2A and TOP2B protein (TopoGEN and Inspiralis respectively); purchased Inspiralis HTB205; settings: 200 µM, buffer without ATP
Protocol: (§3) The reactions were incubated in 37C for 30 min and stopped by adding 2 µl of 10% SDS and 1 µl of 250 mM of EDTA, followed by the addition of 50 µg/ml of proteinase K at 45C for 30 min. The reaction was then resolved by electrophoresis on a 1% agarose gel containing […] ethidium bromide in TAE buffer at 60 V. DNA bands were visualized using a gel imager (Gel Doc™ EZ System) and quantified by using the Image Studio™ Lite Quantification Software.

[4] = molecular target: T1, TOP2A; test: DNA cleavage assay; assay type: biochemical; set-up: full-length human TOP2A and TOP2B protein (TopoGEN and Inspiralis respectively); purchased TopoGEN TG1001 (human TOP2 assay kit); settings: 200 µM, buffer without ATP
Protocol: as §3

[5] = molecular target: T2, TOP2A (431–1193) (Homo sapiens, UniProt P11388); test: Bio-Layer Interferometry (BLI) assay; assay type: binding
T2 construct: was incorporated with TOP2A (431–1193); made in house; host or cells: Escherichia coli BL21 co-expressing biotin ligase
Protocol: BLI assays were performed as we previously reported ([33]). The direct and reversible interactions between small molecules and TOP2 protein were quantified by BLI using OctetRED (ForteBio, Bohemia, NY). Human TOP2A (431–1,193) was produced in situ with AviTag technology. The AviTag sequence ([…]) followed by a six-residue glycine serine linker (GSGSGS) was incorporated with TOP2A (431–1193). Escherichia coli BL21 containing both biotin ligase and TOP2A (431–1193) vectors were induced with 0.5 mM isopropyl-β-D-thiogalactopyranoside (IPTG) and biotin at 16C overnight. The bacteria were then lysed by sonication, and the resulting lysate was purified by immobilized metal ion affinity chromatography (IMAC) with nickel nitrilotriacetic acid (NiNTA) resin and cation-exchange chromatography (HiTrap SP). Purified TOP2A (431–1193) (50 μg/ml) was bound to the super-streptavidin sensors over 50 min at room temperature. The sensor was kept in an assay buffer [20 mM N-2-hydroxyethylpiperazine-N0 -2-ethanesulfonic acid (HEPES), 150 mM NaCl, 500 μM tris(2-carboxyethyl) phosphine (TCEP), and 1% dimethylsulfoxide (DMSO)], when small molecules were added. After 200 s, a wash buffer was used to flush the sensor plate for 100 s. BLI signal was recorded throughout the 300 s following the manufacture’s instruction from OctetRED (ForteBio, Bohemia, NY).

[6] = molecular target: T1, TOP2A; test: K-DNA decatenation assay; assay type: biochemical; set-up: full-length human TOP2A and TOP2B protein (TopoGEN and Inspiralis respectively); purchased TopoGEN TG1001 (human TOP2 assay kit); settings: Figure 3A
Protocol: as §1

[7] = molecular target: T1, TOP2A; test: DNA relaxation assay (supercoiled pHOT-1 plasmid); assay type: biochemical; set-up: full-length human TOP2A and TOP2B protein (TopoGEN and Inspiralis respectively); purchased TopoGEN TG1001 (human TOP2 assay kit); settings: Figure 3B
Protocol: as §2

[8] = system: salmon sperm DNA; test: Ethidium bromide displacement assay; assay type: binding; settings: increasing doses; 100 µg/ml DNA, 2 µg/ml ethidium bromide
Protocol: Ethidium bromide displacement assay was performed as previously described ([49], [50]) using Amsacrine (mAMSA) as a positive control. In a 20 µl reaction, compounds were mixed with 100 µg/ml of salmon sperm DNA and 2 µg/ml of ethidium bromide in a fluorescence buffer containing 10 mM HEPES, pH 7.9, 100 mM KCl, 5 mM MgCl2, 0.1 mM EDTA, pH 8.0. Triplicate reactions were subjected to fluorescence emission of 590 nm and excitation of 535 nm. Signals were detected by using the Multimode Microplate Reader, Infinite® F500.

[9] = molecular target: TOP2A full-length (Homo sapiens, UniProt P11388 1-1531); test: EMSA; 2 uM protein, 300 nM DNA, 3 mM Mg2+, no inhibitor; 20 mM HEPES-NaOH pH 7.4, 2 mM DTT, 3 mM MgCl2, 0.05% NP-40, protease inhibitors, 0.1 ug poly[dI:dC] in 20 ul, 30 min at 37 C; 4% native gel in 0.5x TBE; settings: protein: commercial; label: IRDye700; blunt; self-complementary strand, 2 copies
[10] = molecular target: TOP2B full-length (Homo sapiens, UniProt Q02880 1-1626); test: as above; settings: protein: commercial; label: IRDye700; blunt; self-complementary strand, 2 copies
[11] = molecular target: TOP2A (431-1193) (Homo sapiens, UniProt P11388 431-1193); test: EMSA; 30 uM protein, 300 nM DNA, 3 mM Mg2+, no inhibitor; 20 mM HEPES-NaOH pH 7.4, 2 mM DTT, 3 mM MgCl2, 0.05% NP-40, protease inhibitors, 0.1 ug poly[dI:dC] in 20 ul, 30 min at 37 C; 4% native gel in 0.5x TBE; settings: protein: recombinant; (NiNTA purified); label: IRDye700; blunt; self-complementary strand, 2 copies
TOP2A (431-1193), sequence (P11388 431-1193): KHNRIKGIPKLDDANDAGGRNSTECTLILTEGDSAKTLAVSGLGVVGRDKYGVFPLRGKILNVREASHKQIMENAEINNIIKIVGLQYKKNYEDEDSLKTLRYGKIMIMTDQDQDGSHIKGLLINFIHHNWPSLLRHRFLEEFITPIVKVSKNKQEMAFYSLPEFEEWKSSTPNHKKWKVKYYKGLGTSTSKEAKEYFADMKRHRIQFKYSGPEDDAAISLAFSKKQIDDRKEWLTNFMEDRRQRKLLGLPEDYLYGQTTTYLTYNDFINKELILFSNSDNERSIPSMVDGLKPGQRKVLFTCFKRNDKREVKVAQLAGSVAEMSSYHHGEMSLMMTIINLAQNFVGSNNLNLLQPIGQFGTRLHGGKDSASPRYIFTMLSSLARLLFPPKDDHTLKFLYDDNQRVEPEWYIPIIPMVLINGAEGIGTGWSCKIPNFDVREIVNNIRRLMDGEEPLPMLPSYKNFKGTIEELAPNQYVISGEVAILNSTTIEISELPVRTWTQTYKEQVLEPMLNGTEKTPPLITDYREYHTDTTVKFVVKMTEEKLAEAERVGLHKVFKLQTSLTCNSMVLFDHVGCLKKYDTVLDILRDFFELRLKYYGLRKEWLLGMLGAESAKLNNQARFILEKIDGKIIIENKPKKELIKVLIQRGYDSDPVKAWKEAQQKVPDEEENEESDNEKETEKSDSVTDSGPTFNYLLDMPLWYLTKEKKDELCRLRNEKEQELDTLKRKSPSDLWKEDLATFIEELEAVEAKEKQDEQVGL

T2 sequence (P11388 431-1193): as above
T1 sequence (P11388 whole entry): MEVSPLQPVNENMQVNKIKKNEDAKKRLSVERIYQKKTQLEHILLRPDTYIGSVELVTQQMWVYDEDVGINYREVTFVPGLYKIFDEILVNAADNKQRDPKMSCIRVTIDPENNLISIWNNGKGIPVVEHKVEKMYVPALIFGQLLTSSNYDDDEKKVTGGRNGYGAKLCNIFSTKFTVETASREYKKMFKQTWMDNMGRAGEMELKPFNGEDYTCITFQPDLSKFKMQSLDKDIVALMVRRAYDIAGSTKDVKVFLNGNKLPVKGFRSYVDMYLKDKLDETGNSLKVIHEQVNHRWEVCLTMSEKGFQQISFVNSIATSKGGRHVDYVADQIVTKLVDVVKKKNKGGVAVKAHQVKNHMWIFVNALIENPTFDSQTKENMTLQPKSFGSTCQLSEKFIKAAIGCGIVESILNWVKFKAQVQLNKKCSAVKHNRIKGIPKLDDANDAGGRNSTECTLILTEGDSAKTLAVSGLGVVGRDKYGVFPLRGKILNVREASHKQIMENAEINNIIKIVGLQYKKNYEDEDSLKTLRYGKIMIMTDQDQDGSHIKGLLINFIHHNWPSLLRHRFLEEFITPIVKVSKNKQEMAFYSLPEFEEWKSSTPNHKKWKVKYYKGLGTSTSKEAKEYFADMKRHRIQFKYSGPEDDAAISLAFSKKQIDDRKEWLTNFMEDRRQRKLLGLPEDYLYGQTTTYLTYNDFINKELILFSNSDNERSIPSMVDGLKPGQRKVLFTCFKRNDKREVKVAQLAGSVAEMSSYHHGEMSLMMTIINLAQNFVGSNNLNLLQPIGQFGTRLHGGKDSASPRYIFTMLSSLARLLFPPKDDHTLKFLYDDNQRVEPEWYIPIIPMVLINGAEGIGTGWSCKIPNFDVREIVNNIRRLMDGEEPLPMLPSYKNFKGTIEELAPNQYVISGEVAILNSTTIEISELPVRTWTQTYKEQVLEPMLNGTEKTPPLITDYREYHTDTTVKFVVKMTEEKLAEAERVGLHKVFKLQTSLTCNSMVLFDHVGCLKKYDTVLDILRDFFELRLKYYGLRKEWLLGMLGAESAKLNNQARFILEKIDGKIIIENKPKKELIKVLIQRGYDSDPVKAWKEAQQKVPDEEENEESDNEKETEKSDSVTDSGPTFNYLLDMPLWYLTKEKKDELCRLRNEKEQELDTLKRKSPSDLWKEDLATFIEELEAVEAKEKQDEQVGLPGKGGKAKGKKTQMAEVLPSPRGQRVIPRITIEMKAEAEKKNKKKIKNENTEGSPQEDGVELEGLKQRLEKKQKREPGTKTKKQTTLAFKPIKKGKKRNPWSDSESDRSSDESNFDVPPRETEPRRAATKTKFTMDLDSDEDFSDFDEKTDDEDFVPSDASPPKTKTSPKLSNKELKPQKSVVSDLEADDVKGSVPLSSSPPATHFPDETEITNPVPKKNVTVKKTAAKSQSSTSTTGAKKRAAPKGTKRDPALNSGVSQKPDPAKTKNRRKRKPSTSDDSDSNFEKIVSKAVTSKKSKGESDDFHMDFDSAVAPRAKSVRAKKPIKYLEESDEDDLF
TOP2B full-length, sequence (Q02880 whole entry): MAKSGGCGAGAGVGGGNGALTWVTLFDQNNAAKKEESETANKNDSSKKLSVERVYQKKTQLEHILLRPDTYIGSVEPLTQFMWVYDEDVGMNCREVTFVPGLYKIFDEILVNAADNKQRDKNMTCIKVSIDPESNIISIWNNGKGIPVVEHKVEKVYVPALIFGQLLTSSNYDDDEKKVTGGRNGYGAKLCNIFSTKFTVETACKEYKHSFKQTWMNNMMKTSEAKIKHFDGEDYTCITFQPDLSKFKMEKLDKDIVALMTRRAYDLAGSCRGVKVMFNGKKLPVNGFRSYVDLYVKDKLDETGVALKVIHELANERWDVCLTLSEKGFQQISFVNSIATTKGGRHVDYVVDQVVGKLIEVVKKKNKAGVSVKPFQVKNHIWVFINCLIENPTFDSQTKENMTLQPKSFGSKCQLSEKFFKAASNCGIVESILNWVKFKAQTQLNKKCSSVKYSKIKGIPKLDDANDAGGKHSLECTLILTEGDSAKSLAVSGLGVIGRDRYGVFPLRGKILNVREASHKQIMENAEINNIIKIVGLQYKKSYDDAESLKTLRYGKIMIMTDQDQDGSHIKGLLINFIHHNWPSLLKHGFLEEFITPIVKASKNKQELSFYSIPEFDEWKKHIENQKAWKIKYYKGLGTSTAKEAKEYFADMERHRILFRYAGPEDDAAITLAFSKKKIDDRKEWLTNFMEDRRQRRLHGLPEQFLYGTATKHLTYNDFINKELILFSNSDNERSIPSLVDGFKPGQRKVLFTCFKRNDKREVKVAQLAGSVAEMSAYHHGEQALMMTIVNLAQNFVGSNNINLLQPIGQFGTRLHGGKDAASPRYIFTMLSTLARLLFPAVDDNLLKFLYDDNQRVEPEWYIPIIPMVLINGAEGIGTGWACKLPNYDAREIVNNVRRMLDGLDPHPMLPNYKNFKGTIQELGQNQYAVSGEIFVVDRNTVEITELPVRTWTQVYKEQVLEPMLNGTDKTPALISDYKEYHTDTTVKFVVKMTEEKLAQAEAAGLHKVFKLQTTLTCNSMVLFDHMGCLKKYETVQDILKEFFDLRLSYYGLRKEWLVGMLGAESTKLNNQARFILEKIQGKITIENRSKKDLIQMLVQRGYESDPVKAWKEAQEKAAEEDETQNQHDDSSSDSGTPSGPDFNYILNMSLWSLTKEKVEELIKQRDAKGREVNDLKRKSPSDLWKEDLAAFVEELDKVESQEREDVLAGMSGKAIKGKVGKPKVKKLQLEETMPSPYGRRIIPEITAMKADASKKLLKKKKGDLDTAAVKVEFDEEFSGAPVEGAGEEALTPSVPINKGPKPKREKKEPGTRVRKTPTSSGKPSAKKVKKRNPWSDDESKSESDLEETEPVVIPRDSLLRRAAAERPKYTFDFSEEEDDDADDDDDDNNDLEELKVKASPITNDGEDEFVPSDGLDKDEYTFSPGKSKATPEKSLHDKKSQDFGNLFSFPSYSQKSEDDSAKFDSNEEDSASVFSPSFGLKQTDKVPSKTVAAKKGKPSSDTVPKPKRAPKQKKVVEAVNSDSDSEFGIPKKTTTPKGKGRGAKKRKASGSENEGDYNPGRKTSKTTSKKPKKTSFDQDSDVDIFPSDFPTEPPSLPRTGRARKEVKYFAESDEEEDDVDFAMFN
TOP2B, sequence (Q02880 whole entry): as above
TOP2A full-length, sequence (P11388 whole entry): as the sequence (P11388 whole entry) above

Cc1cc(NC(=O)c2ccc[nH]c2=S)ccc1Nc1ccccc1 [T630]
Activity on TOP2 [1]: stronger activities than T60

COc1cc([C@@H]2c3cc4c(cc3[C@@H](O[C@@H]3O[C@@H]5CO[C@@H](C)O[C@H]5[C@H](O)[C@H]3O)[C@H]3COC(=O)[C@H]23)OCO4)cc(OC)c1O [etoposide]
Tumor volumes versus vehicle group at the end of four weeks [2]: statistically lower than the vehicle group | Induction of linear plasmid (DNA cleavage) with TOP2B [3]: induced detectable linear plasmid | Induction of linear plasmid (DNA cleavage) with TOP2A [4]: induced detectable linear plasmid

O=C(Nc1ccc(Nc2ccccc2)cc1O)c1ccc[nH]c1=S [T634]
Activity on TOP2 [1]: stronger activities than T60

CN(C(=O)c1ccc[nH]c1=S)c1ccc(Nc2ccccc2)cc1 [T627]
Activity on TOP2 [1]: complete abolishment of T60 activity

O=C(Nc1ccc(Nc2ccccc2O)cc1)c1ccc[nH]c1=S [T620]
Activity on TOP2 [1]: increased activity

O=C(Nc1ccc(Nc2ccccc2)cc1)c1ccnnc1S [T635]
Activity on TOP2 [1]: nearly inactive

O=C(Nc1ccc(Nc2ccccc2)cc1)c1ccccc1S [T609]
Activity on TOP2 [1]: most active compound

O=C(Nc1ccc(Nc2ccccc2)cc1)c1c[nH]cnc1=S [T636]
Activity on TOP2 [1]: nearly inactive

Cc1cc(Nc2ccccc2)ccc1NC(=O)c1ccc[nH]c1=S [T633]
Hill slope, BLI ([5]; dose-response 0-50 μM): 5±1.5 | Kd ([5]; dose-response 0-50 μM, estimated): 35 ± 3 µM | Binding to TOP2A (431–1193), BLI curves ([5]; increasing concentrations): reversible and dose-response binding | Tumor growth at the end of two weeks [2]: strongly inhibit tumor growth comparable to etoposide | Activity on TOP2 [1]: stronger activities than T60

ICRF193 [reference compound]
Inhibition of TOP2A mediated K-DNA decatenation [6]: inhibited | Inhibition of TOP2A activity changing supercoiled into relaxed plasmid DNA [7]: inhibited

O=C(Nc1ccc(Nc2ccc(O)cc2)cc1)c1ccc[nH]c1=S [T625]
Activity on TOP2 [1]: increased activity

COc1cc(NS(C)(=O)=O)ccc1Nc1c2ccccc2nc2ccccc12 [m-AMSA, Amsacrine, reference compound]
Fluorescence of ethidium bromide/DNA complex (DNA intercalation) [8]: reduced

B1: 5ZRF (dsDNA)
DNA 1: AGCCGAGCTGCAGCTCGGCT
DNA 2: AGCCGAGCTGCAGCTCGGCT
binding result [9]: binds | binding result [10]: binds | binding result [11]: binds
